This is an account of results in patent US11208412B2 (DAEGU-GYEONGBUK MEDICAL INNOVATION FOUNDATION, priority 2017, dated 2021).

Assay in all cases: Kinase selectivity, DiscoverX scanMAX Kinase assay panel (% control)
Assay type in all cases: binding

For assay [1], the target named is T1, kinases of the scanMAX Kinase assay panel (Homo sapiens, UniProt O75747).
T1 construct: purchased DiscoverX Co. (contract measurement) scanMAX Kinase assay panel
T1 sequence (O75747 1-1486): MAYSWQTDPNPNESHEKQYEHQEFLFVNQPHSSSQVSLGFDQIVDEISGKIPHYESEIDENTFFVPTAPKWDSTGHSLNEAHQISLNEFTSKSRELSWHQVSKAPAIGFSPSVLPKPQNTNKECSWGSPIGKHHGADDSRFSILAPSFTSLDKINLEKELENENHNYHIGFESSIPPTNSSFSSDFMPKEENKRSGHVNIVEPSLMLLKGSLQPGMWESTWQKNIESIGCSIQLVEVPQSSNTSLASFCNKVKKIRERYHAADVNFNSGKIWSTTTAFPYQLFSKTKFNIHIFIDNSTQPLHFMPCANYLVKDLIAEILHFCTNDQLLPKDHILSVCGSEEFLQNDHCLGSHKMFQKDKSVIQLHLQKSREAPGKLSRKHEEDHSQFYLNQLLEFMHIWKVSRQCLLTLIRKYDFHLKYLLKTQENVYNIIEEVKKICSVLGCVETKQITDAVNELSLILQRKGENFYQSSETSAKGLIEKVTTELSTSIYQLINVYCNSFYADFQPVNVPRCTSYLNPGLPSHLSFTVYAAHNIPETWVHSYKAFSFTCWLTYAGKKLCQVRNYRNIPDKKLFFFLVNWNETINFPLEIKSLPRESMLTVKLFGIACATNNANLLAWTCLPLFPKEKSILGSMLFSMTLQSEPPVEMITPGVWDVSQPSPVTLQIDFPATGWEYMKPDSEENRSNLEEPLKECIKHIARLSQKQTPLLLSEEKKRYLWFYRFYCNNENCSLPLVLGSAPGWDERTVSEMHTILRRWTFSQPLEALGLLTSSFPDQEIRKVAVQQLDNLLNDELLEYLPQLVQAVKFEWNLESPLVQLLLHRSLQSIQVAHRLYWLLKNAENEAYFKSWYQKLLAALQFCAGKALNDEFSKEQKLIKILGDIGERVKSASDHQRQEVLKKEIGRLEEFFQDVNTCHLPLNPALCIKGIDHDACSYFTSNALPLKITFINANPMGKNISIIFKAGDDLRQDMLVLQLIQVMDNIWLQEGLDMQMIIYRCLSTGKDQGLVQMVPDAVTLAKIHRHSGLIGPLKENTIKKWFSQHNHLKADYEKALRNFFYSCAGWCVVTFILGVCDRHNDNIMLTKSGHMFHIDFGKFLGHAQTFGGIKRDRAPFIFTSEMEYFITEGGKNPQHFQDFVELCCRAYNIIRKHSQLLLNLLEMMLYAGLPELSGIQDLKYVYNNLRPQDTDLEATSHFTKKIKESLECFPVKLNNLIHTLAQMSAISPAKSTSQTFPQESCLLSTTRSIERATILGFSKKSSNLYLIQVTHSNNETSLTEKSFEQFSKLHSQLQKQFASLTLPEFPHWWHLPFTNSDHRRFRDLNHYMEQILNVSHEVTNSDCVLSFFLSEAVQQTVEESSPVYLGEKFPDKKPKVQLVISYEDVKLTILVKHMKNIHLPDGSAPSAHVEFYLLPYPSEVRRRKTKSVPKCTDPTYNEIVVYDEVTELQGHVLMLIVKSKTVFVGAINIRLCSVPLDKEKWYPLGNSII
The settings on record: PIK3C2G; 1 uM. Put shortly: (§1)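 Single-point screen, 1 uM cpd in DMSO. % ctrl = (cpd − pos ctrl)/(neg ctrl − pos ctrl)×100; pos ctrl = 0%, DMSO neg ctrl = 100%. Hit cutoff <35%.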

Assay [2] has as its target T2, kinases of the scanMAX Kinase assay panel (Homo sapiens, UniProt O96017).
T2 construct: purchased DiscoverX Co. (contract measurement) scanMAX Kinase assay panel
The settings on record: CHEK2; 1 uM. The essentials:
as §1

The target of assay [3] is T3, kinases of the scanMAX Kinase assay panel (Homo sapiens, UniProt P00533, L858R/T790M).
T3 construct: purchased DiscoverX Co. (contract measurement) scanMAX Kinase assay panel
T3 sequence (P00533 25-1210 T790M/L858R): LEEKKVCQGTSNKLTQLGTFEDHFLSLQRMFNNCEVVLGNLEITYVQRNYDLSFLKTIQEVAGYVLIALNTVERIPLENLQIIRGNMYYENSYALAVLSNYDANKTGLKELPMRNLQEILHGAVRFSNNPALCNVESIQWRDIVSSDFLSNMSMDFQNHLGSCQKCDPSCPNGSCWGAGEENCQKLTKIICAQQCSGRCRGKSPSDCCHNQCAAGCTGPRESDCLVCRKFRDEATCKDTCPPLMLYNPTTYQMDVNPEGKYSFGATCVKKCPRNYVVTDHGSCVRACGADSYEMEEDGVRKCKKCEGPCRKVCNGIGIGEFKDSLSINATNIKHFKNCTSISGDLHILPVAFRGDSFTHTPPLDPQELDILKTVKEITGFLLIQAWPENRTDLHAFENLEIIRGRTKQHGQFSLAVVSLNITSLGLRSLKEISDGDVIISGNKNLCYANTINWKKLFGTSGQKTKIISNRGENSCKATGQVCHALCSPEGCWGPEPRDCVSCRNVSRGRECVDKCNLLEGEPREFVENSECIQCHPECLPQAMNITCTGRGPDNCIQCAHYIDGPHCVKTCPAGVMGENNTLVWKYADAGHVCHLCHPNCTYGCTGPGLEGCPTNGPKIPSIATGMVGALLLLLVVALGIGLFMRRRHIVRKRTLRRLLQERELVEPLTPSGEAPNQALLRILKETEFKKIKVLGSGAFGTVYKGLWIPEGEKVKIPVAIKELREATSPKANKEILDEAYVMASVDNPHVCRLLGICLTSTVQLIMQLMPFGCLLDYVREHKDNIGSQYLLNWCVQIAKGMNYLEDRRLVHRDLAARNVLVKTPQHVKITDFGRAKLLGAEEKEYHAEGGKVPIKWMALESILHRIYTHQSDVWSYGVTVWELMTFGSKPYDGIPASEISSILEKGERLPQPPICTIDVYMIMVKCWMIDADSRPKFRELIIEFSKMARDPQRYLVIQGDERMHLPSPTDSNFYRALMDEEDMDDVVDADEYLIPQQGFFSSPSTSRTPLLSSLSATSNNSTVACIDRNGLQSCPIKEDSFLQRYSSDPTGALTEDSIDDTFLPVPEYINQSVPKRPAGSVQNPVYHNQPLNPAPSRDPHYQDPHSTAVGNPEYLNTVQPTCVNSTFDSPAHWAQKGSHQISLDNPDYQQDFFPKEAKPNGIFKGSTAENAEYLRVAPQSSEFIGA
The settings on record: EGFR(L858R, T790M); 1 uM. The essentials:
as §1

The target of assay [4] is T4, kinases of the scanMAX Kinase assay panel (Homo sapiens, UniProt P35968).
T4 construct: purchased DiscoverX Co. (contract measurement) scanMAX Kinase assay panel
T4 sequence (P35968 20-1356): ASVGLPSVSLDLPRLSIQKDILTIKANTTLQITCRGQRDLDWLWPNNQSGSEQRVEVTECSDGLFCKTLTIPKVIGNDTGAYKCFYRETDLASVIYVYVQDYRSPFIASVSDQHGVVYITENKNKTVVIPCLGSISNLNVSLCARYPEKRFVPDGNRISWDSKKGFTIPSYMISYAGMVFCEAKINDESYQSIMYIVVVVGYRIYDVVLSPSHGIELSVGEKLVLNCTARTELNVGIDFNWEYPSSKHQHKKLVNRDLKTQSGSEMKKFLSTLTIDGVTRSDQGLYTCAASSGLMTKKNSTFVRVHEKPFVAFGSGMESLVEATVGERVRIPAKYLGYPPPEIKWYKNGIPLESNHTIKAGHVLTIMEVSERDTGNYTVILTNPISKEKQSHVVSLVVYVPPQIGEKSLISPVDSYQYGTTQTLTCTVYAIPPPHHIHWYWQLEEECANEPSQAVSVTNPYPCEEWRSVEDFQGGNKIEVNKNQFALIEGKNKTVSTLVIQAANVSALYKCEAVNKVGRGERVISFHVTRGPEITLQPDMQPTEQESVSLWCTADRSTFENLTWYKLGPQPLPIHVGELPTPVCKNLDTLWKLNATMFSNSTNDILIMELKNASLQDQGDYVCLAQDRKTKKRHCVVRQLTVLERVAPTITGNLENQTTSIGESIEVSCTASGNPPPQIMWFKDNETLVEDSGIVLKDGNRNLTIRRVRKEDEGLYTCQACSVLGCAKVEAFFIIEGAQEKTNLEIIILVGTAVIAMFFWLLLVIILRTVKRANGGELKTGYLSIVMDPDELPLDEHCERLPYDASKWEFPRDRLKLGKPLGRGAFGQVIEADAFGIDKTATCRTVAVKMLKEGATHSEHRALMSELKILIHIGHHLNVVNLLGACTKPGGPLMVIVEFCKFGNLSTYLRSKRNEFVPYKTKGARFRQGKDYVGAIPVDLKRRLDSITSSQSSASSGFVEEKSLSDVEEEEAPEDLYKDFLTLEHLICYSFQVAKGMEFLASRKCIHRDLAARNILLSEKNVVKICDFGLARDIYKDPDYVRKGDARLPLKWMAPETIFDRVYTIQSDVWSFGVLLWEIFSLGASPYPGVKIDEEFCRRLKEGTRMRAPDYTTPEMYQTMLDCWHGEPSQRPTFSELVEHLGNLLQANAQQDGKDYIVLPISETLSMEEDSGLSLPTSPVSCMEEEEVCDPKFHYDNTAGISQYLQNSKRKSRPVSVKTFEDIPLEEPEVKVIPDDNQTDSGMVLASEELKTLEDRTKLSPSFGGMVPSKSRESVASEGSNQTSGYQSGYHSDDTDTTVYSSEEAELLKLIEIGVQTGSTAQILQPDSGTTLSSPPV
The settings on record: kinase VEGFR2; 1 uM in DMSO. The essentials:
as §1

The target in assay [5] is T5, kinases of the scanMAX Kinase assay panel (Homo sapiens, UniProt Q8NEB9).
T5 construct: purchased DiscoverX Co. (contract measurement) scanMAX Kinase assay panel
T5 sequence (Q8NEB9 whole entry): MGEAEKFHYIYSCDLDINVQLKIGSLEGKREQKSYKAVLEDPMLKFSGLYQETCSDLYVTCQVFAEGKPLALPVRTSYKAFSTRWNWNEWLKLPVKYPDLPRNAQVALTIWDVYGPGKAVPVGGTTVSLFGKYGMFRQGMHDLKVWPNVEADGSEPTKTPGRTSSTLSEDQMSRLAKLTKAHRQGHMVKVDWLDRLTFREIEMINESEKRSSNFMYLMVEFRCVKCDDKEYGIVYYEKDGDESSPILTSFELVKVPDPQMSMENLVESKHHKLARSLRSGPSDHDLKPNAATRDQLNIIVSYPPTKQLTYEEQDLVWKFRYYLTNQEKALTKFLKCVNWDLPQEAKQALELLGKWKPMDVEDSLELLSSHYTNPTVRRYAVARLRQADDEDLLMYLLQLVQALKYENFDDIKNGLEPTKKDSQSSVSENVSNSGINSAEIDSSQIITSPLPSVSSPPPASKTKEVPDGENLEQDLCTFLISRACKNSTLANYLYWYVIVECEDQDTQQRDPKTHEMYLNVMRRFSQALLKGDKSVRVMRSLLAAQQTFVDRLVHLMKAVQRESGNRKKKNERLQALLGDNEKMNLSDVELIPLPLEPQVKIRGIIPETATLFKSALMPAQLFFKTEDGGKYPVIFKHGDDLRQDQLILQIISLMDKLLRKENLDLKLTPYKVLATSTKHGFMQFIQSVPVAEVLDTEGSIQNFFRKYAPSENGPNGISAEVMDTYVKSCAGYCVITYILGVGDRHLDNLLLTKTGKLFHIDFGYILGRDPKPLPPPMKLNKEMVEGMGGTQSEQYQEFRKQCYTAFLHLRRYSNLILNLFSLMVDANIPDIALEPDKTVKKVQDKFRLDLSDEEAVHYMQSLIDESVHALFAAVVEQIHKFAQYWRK
The note with it: kinase VPS34; 1 uM in DMSO. The essentials: as §1

The target of assay [6] is T6, kinases of the scanMAX Kinase assay panel (Homo sapiens, UniProt Q9Y2H9).
T6 construct: purchased DiscoverX Co. (contract measurement) scanMAX Kinase assay panel
The settings on record: MAST1; 1 uM. Put shortly: as §1

T2 sequence (O96017 whole entry): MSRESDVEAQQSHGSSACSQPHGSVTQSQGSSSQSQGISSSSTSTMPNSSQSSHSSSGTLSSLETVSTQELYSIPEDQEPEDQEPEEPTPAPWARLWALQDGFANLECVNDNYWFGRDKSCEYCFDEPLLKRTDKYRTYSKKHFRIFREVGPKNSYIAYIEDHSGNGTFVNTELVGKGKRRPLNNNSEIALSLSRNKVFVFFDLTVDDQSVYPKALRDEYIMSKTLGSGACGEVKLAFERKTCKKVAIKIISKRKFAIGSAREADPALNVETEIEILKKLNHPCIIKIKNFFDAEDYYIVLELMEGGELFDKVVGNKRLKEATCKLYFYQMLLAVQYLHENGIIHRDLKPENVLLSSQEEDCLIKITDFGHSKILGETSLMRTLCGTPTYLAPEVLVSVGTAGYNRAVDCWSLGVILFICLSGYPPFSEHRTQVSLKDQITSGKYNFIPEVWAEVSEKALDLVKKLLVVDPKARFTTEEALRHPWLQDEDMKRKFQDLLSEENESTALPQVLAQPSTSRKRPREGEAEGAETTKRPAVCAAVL

Regarding `CNc1nc(Nc2ccc(C(=O)N3CCOCC3)cc2OC)nc2[nH]cc(C#N)c12` [Example 1, 2-((2-methoxy-4-(morpholine-4-carbonyl)phenyl)amino)-4-(methylamino)-7H-pyrrolo[2,3-d]pyrimidine-5-carbonitrile], the remaining binding at 1 µM in assay [1] worked out at 99%; in assay [2] it was 7.7%; in assay [3], 54%; in assay [4] it was 63%; in assay [5], 84%; in assay [6], 100%.

Regarding `CC1(Nc2nc(Nc3cnn([C@H]4CCN(C5COC5)C[C@@H]4F)c3Cl)nc3[nH]cc(C#N)c23)CC1` [Example 52, 2-((5-chloro-1-((3S,4S)-3-fluoro-1-(oxetane-3-yl)piperidine-4-yl)-1H-pyrazole-4-yl)amino)((1-methylcyclopropyl)amino)-7H-pyrrolo[2,3-d]pyrimidine-5-carbonitrile], the remaining binding at 1 µM in assay [1] is 72%; in assay [2], 0%; in assay [3], 2.3%; in assay [4] it was 3.7%; in assay [5], 100%; in assay [6] it was 74%.

As for `CCNc1nc(Nc2ccc(C(=O)N3CCC(N4CCOCC4)CC3)cc2OC)nc2[nH]cc(C(F)(F)F)c12` [Example 104, (4-((4-(ethylamino)-5-(trifluoromethyl)-7H-pyrrolo[2,3-d]pyrimidine-2-yl)amino)-3-methoxyphenyl)(4-morpholinopiperidine-1-yl)methanone], the remaining binding at 1 µM was determined as 86% in assay [1]; 12% in assay [2]; 55% in assay [3]; 73% in assay [4]; 78% in assay [5]; 72% in assay [6].
